The record followed here is patent US9920074B2 (ACEA BIOSCIENCES INC., priority 2013, dated 2018).

Common to all, as to type: cell-based
In assay [1] the target is T1, Btk (Tyr223) phosphorylation in Ramos cells (Homo sapiens, UniProt Q06187).
T1 construct: endogenous in cells; host or cells: Ramos cells (ATCC)
As to the kind of experiment: Btk Tyr223 phosphorylation inhibition, western blotting assay (Example 72). The settings on record: Btk Tyr223 phosphorylation, 45 min, 12 μg/mL IgM, read-out: BTK Inhibition. As to the method:
Ramos cell line was obtained from the American Type Culture Collection and was maintained at 37° C. with 5% CO2, in media supplemented with 10% fetal bovine serum, penicillin (100 units/mL) and streptomycin (100 μg/mL), Goat F(ab′)2 Anti-Human IgM-UNLB was obtained from SouthernBiotech.
Ramos cells were treated with compounds at indicated doses for 45 min at room temperature, followed by stimulation of 12 μg/mL of IgM for 30 min, and then lysed. Western blots were performed on the cell lysate using Phospho-Btk (Tyr223), Phospho-Btk (Tyr551), Btk, Phospho-PLCγ2 (Tyr1217), PLCγ2, Phospho-p44/42 MAPK (Erk1/2) (Thr202/Tyr204) and p44/42 MAPK (Erk1/2) antibodies (Cell Signaling Technology). The density of blotting band was acquired using ImageJ software, and the IC50 of Btk (Tyr223) phosphorylation was fitted using a non-linear regression model by GraphPad Prism version 4.0.
(A western blot detects proteins with antibodies after separation by electrophoresis.)

Assay [2] addresses T1, Btk (Tyr223) phosphorylation in Ramos cells. As to the kind of experiment: Western blotting assay for Btk (Example 73). To be noted: 45 min, 6 μg/mL anti-IgM, read-out: Btk Inhibition. As to the method:
(§1) All cell lines were obtained from the American Type Culture Collection and were maintained at 37° C. with 5% CO2. Ramos cell line was maintained in media supplemented with 10% fetal bovine serum, penicillin (100 units/mL) and streptomycin (100 μg/mL). NK-92 cell line was maintained in media supplemented with 10% fetal bovine serum and 10% horse serum, penicillin (100 units/mL) and streptomycin (100 μg/mL), IL-2 10 ng/mL. Goat F(ab′)2 Anti-Human IgM-UNLB was obtained from SouthernBiotech. IL-2 was obtained from Peprotech.
Ramos cells were treated with compounds at indicated doses for 45 min at room temperature, followed by stimulation of 6 μg/mL of anti-IgM for 30 min, and then lysed. Western blots were performed on the cell lysate using Phospho-Btk (Tyr223), Phospho-Btk (Tyr551), Btk, Phospho-PLCγ2 (Tyr1217), PLCγ2, Phospho-p44/42 MAPK (Erk1/2) (Thr202/Tyr204) and p44/42 MAPK (Erk1/2) antibodies (Cell Signaling Technology). The density of blotting band was acquired using ImageJ software, and the IC50 of Btk (Tyr223) phosphorylation was fitted using a non-linear regression model by GraphPad Prism.

Assay [3] concerns Stat5 phosphorylation in NK-92 cells. Nature of the assay: Western blotting assay for Stat5. To be noted: NK92, 1 hour, IL-2 stimulation, read-out: Stat5 inhibition. Here is the method: as §1
NK-92 cells were treated with compounds at the dosed indicated for 1 hour in incubator, followed by the IL-2 stimulation for 15 minutes. Cells were then collected and lysed to prepare the cellular extraction. Western blots were performed on cell lysate using Phospho-Jak3, Jak3, Phospho-Stat5, Stat5 antibodies (Cell Signaling Technology). The intensity of blotting band was acquired using Image Lab (Bio-Rad) software, and the IC50 of target was generated with GraphPad Prism.

Assay [4] concerns the target T2, free Btk protein from Ramos cells (Homo sapiens, UniProt Q06187).
T2 construct: endogenous in cells; host or cells: Ramos cells (ATCC)
Nature of the assay: Btk target site occupancy ELISA assay. The settings on record: 1 h, ELISA, read-out: Btk Occupancy Assay (IC50). Here is the method: (§2) Ramos cells were treated with Compound I-1 at indicated concentrations for 1 h, followed by stimulation with 6 μg/mL of IgM for 30 mm, and then lysed. Lysates were incubated with Compound I-21 (biotin labeled) at a final concentration of 1 μM in a PBS, 0.05% Tween-20, 1% BSA solution while shaking for 1 h at room temperature. Samples were transferred to a streptavidin-coated 96-well ELISA plate and mixed while shaking for 1 h at room temperature. The Btk antibody (BD 611116, 1:1000 dilution in PBS+0.05% Tween-20+0.5% BSA) was then applied and incubated for 1 h at room temperature. After wash, goat anti-mouse-HRP (Pierce 31432, 1:1000 dilution in PBS+0.05% Tween-20+0.5% BSA) was added and incubated for 1 h at room temperature. The ELISA was developed with addition of tetramethyl benzidine (TMB) followed by Stop Solution and read at OD 450 nm.
as §2, with “Compounds” for “Compound I-1”, “anti-IgM” for “IgM”, “diluted” for “dilution”, “tetramethylbenzidine” for “tetramethyl benzidine”
For orientation: ELISA stands for enzyme-linked immunosorbent assay.

T1 sequence (Q06187 whole entry): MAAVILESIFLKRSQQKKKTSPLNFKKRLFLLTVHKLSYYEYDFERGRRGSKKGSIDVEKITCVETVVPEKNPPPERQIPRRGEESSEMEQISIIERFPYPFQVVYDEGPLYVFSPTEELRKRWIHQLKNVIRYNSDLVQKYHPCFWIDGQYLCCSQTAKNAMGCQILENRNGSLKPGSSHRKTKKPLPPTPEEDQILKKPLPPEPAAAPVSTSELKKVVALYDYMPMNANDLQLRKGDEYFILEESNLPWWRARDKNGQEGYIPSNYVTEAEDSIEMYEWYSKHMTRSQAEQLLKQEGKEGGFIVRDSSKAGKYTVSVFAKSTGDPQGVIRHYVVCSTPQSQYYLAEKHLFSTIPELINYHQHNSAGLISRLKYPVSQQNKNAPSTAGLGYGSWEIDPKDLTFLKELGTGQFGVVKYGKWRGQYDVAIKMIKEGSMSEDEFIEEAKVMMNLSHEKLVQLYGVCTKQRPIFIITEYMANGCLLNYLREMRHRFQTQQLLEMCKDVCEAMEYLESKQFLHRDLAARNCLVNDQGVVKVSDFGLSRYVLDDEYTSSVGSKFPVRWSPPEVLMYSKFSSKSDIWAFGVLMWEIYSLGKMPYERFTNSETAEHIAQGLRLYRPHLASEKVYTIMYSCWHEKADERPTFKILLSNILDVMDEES
T2 sequence (Q06187 whole entry): as above

On to `C=CC(=O)Nc1cccc(Oc2nc(Nc3ccc(N4CCN(CCF)CC4)c(F)c3)ncc2OC)c1` [Compound I-3, N-(3-(2-(3-fluoro-4-(4-(2-fluoroethyl)piperazin-1-yl)phenylamino)-5-methoxypyrimidin-4-yloxy)phenyl)acrylamide], for which the values for the IC50 in assay [1], in assay [2] and in assay [3] were below 10 nM, at most 10 nM and 200 to 400 nM, respectively.
Taken in the same sequence, the figures for `C=CC(=O)Nc1cccc(Nc2nc(Nc3ccc(N4CCN(CCF)CC4)c(F)c3)ncc2F)c1` [Compound I-4, N-(3-((5-fluoro-2-((3-fluoro-4-(4-(2-fluoroethyl)piperazin-1yl)phenyl)amino)pyrimidin-4-yl)amino)phenyl)acrylamide] were below 10 nM, at most 10 nM and 200 to 400 nM.
In the same order, the values of `C=CC(=O)Nc1cccc(Nc2nc(Nc3ccc(N4CCN(CCF)CC4)cc3)ncc2OC)c1` [Compound I-5] are below 10 nM, at most 10 nM and 200 to 400 nM.
In the same order, the values of `C=CC(=O)Nc1ccccc1Nc1nc(Nc2ccc(N3CCN(CCF)CC3)cc2)ncc1F` [Compound I-6, N-(2-(5-fluoro-2-(4-(4-(2-fluoroethyl)piperazin-1-yl)phenylamino)pyrimidin-4-ylamino)phenyl)acrylamide] are below 10 nM, at most 10 nM and 200 to 400 nM.
Regarding `C=CC(=O)Nc1cccc(Nc2nc(Nc3ccc(N4CCN(CCF)CC4)c(F)c3)ncc2OC)c1` [Compound I-7], the IC50 in assay [1] is 10 to 100 nM; in assay [2], 10 to 100 nM; in assay [3], at least 400 nM.
`C=CC(=O)Nc1cccc(Oc2nc(Nc3ccc(N4CCN(CCF)CC4)c(F)c3)ncc2F)c1` [Compound I-8]: the IC50 in assay [1] was below 10 nM.
Regarding `C=CC(=O)Nc1cccc(Oc2nc(Nc3ccc(N4CCN(CCF)CC4)cc3)ncc2OC)c1` [Compound I-9], the figures for the IC50 in assay [1], in assay [2] and in assay [3] were below 10 nM, at most 10 nM and 200 to 400 nM, respectively.
For `C=CC(=O)Nc1cccc(Oc2nc(Nc3ccc(OCCOC)cc3)nc3[nH]ccc23)c1` [Compound I-10, N-(3-(2-(4-(2-methoxyethoxy)phenylamino)-7H-pyrrolo[2,3-d]pyrimidin-4-yloxy)phenyl)acrylamide], the IC50 in assay [1] is below 10 nM; in assay [4], 10 to 100 nM; in assay [2], at most 10 nM; in assay [3], 200 to 400 nM.
On to `C=CC(=O)Nc1cccc(Nc2nc(Nc3ccc(OCCOC)cc3)nc3[nH]ccc23)c1` [Compound I-11, N-(3-(2-(4-(2-methoxyethoxy)phenylamino)-7H-pyrrolo[2,3-d]pyrimidin-4-ylamino)phenyl)acrylamide], for which the IC50 was 10 to 100 nM in assay [1], 10 to 100 nM in assay [2] and at least 400 nM in assay [3].
Regarding `C=CC(=O)Nc1cccc(Oc2nc(Nc3ccc(N4CCN(CCF)CC4)cc3)ncc2F)c1` [Compound I-12], the figures for the IC50 in assay [1], in assay [2] and in assay [3] were 10 to 100 nM, 10 to 100 nM and 200 to 400 nM, respectively.
On to `C=CC(=O)Nc1cccc(Oc2nc(Nc3ccc(N[C@H]4CCN(CCF)C4)cc3)ncc2OC)c1` [Compound I-13, (S)—N-(3-(2-(4-(1-(2-fluoroethyl)pyrrolidin-3-ylamino)phenylamino)-5-methoxypyrimidin-4-yloxy)phenyl)acrylamide], for which the IC50 is below 10 nM in assay [1], at most 10 nM in assay [4], at most 10 nM in assay [2] and at least 400 nM in assay [3].
With `C=CC(=O)Nc1cccc(Oc2nc(Nc3ccc(N[C@@H]4CCN(CCF)C4)cc3)ncc2OC)c1` [Compound I-14, (R)—N-(3-(2-(4-(1-(2-fluoroethyl)pyrrolidin-3-ylamino)phenylamino)-5-methoxypyrimidin-4-yloxy)phenyl)acrylamide], the IC50 in assay [1] is 10 to 100 nM; in assay [2] it was 10 to 100 nM; in assay [3] it was at least 400 nM.
Turning to `C=CC(=O)Nc1cccc(Nc2nc(Nc3ccc(N[C@H]4CCN(CCF)C4)cc3)ncc2F)c1` [Compound I-15], the IC50 in assay [1] is below 10 nM; in assay [2], at most 10 nM; in assay [3], at least 400 nM.
Taken in the same sequence, the figures for `C=CC(=O)Nc1cccc(Nc2nc(Nc3ccc(N[C@H]4CCN(CCF)C4)cc3)ncc2OC)c1` [Compound I-16, (S)—N-(3-(2-(4-(1-(2-fluoroethyl)pyrrolidin-3-ylamino)phenylamino)-5-methoxypyrimidin-4-ylamino)phenyl)acrylamide] were below 10 nM, at most 10 nM and at least 400 nM.
Take `C=CC(=O)Nc1cccc(Nc2nc(Nc3ccc(N[C@@H]4CCN(CCF)C4)cc3)ncc2OC)c1` [Compound I-17, (R)—N-(3-(2-(4-(1-(2-fluoroethyl)pyrrolidin-3-ylamino)phenylamino)-5-methoxypyrimidin-4-ylamino)phenyl)acrylamide]: the results for the IC50 in assay [1], in assay [2] and in assay [3] were below 10 nM, at most 10 nM and at least 400 nM, respectively.
In the same order, the values of `C=CC(=O)Nc1cccc(Nc2nc(Nc3ccc(N[C@@H]4CCN(CCF)C4)cc3)ncc2F)c1` [Compound I-18] are below 10 nM, at most 10 nM and 200 to 400 nM.
`C=CC(=O)Nc1cccc(Oc2nc(Nc3ccc(N[C@H]4CCN(CCF)C4)cc3)ncc2F)c1` [Compound I-20, (S)—N-(3-(5-fluoro-2-(4-(1-(2-fluoroethyl)pyrrolidin-3-ylamino)phenylamino)pyrimidin-4-yloxy)phenyl)acrylamide]: the IC50 in assay [4] and in assay [2] was at most 10 nM in each case.
Turning to `C=CC(=O)Nc1cccc(Oc2nc(Nc3ccc(N(C)[C@H]4CCN(CCS(C)(=O)=O)C4)cc3)ncc2OC)c1` [Compound I-57a, (S)—N-(3-(5-methoxy-2-(4-(methyl(1-(2-(methylsulfonyl)ethyl)pyrrolidin-3-yl)amino)phenylamino)pyrimidin-4-yloxy)phenyl)acrylamide], the IC50 in assay [2] is at most 10 nM; in assay [3], 200 to 400 nM.
As to `C=CC(=O)Nc1cccc(Oc2nc(Nc3ccc(N(C)[C@H]4CCN(C(C)=O)C4)cc3)ncc2OC)c1` [Compound I-58a, (S)—N-(3-(2-(4-((1-acetylpyrrolidin-3-yl)(methyl)amino)phenylamino)-5-methoxypyrimidin-4-yloxy)phenyl)acrylamide], the figures for the IC50 in assay [4], in assay [2] and in assay [3] were at most 10 nM, at most 10 nM and at least 400 nM, respectively.
